From US7371762B2, “3-substituted 6,7-dihydroxytetrahydroisoquinoline derivatives for use as antibacterial agents” (Arpida AG, priority 2001, dated 2008)
In brackets after ≈: the same amount, converted by molar mass.

Legend:
Assay in all cases: Minimal inhibitory concentration (MIC), NCCLS M7-A5 procedure
Type in all cases: cell-based
[1] = tested on: Escherichia coli ATCC25922; conditions: read-out: Minimal inhibitory concentration (MIC) EC 25922
Procedure: (§1) Minimal inhibitory concentrations (MIC) were determined in accordance with the National Committee for Clinical Laboratory Standards (NCCLS) procedure [M7-A5, 2001].
(§2) The results obtained are summarized in table 1 and are expressed in jig/ml. In this table 1, EC 25922 means Escherichia coli ATCC25922, EC DC2 means Escherichia coli DC2, SA 25923 means Staphylococcus aureus ATCC25923 and SA 101 means Staphylococcus aureus 101. (ATCC=American Type Culture Collection)
(§3) M7-A5* (2001): Methods for Dilution Antimicrobial Susceptibility Tests for Bacteria that Grow Aerobically; Approved Standard—Fifth Edition American National Standard.

Escherichia coli DC2 = conditions: read-out: Minimal inhibitory concentration (MIC) EC DC2
Procedure: as §1, §2, §3

[2] = tested on: Staphylococcus aureus 101; conditions: read-out: Minimal inhibitory concentration (MIC) SA 101
Procedure: as §1, §2, §3

[3] = tested on: Staphylococcus aureus ATCC25923; conditions: read-out: Minimal inhibitory concentration (MIC) SA 25923
Procedure: as §1, §2, §3

| Compound | MIC [1] [µg/mL] | MIC (Escherichia coli DC2) [µg/mL] | MIC [2] [µg/mL] | MIC [3] [µg/mL] |
| --- | --- | --- | --- | --- |
| Oc1cc2c(cc1O)CC(COc1ccc(Cl)cc1Cl)NC2 (stereo not shown) [Example 10, 3-(2,4-Dichloro-phenoxymethyl)-1,2,3,4-tetrahydro-isoquinoline-6,7-diol] | 128 (≈ 376 µM) | 2 (≈ 5.88 µM) | 16 (≈ 47 µM) | 8 (≈ 23.5 µM) |
| Oc1cc2c(cc1O)CC(c1ccc(Br)cc1)NC2 (stereo not shown) [Example 16, 3-(4-Bromo-phenyl)-1,2,3,4-tetrahydro-isoquinoline-6,7-diol] | > 128 | 32 (≈ 99.9 µM) | 64 (≈ 200 µM) | 8 (≈ 25 µM) |
| Oc1cc2c(cc1O)CC(c1ccc(-c3ccccc3)cc1)NC2 (stereo not shown) [Example 12, 3-Biphenyl-4-yl-1,2,3,4-tetrahydro-isoquinoline-6,7-diol] | 16 (≈ 50.4 µM) | 8 (≈ 25.2 µM) | 16 (≈ 50.4 µM) | 4 (≈ 12.6 µM) |
| Oc1ccc(-c2ccc(C3Cc4cc(O)c(O)cc4CN3)cc2)cc1 (stereo not shown) [Example 19, 3-(4′-Hydroxy-biphenyl-4-yl)-1,2,3,4-tetrahydro-isoquinoline-6,7-diol] | > 128 | 64 (≈ 192 µM) | 128 (≈ 384 µM) | 128 (≈ 384 µM) |
| Oc1cc2c(cc1O)CC(c1ccc(-c3ccc(F)cc3F)cc1)NC2 (stereo not shown) [Example 21, 3-(2′,4′-Difluoro-biphenyl-4-yl)-1,2,3,4-tetrahydro-isoquinoline-6,7-diol] | 32 (≈ 90.6 µM) | 8 (≈ 22.6 µM) | 8 (≈ 22.6 µM) | 8 (≈ 22.6 µM) |
| Oc1cc2c(cc1O)CN(Cc1ccccc1)C(c1ccc(Oc3ccccc3)cc1)C2 (stereo not shown) [Example 2, 2-Benzyl-3-(4-phenoxy-phenyl)-1,2,3,4-tetrahydro-isoquinoline-6,7-diol] | > 128 | 64 (≈ 151 µM) | 32 (≈ 75.6 µM) | 64 (≈ 151 µM) |
| Oc1cc2c(cc1O)CC(COc1ccc(Cl)c(Cl)c1)NC2 (stereo not shown) [Example 13, 3-(3,4-Dichloro-phenoxymethyl)-1,2,3,4-tetrahydro-isoquinoline-6,7-diol] | > 128 | 16 (≈ 47 µM) | 16 (≈ 47 µM) | 16 (≈ 47 µM) |
| Oc1cc2c(cc1O)CC(c1ccc(Sc3ccccc3)cc1)NC2 (stereo not shown) [Example 8, 3-(4-Phenylsulfanyl-phenyl)-1,2,3,4-tetrahydro-isoquinoline-6,7-diol] | 64 (≈ 183 µM) | 32 (≈ 91.6 µM) | 32 (≈ 91.6 µM) | 8 (≈ 22.9 µM) |
| Oc1cc2c(cc1O)CC(COc1cc(Cl)ccc1Cl)NC2 (stereo not shown) [Example 14, 3-(2,5-Dichloro-phenoxymethyl)-1,2,3,4-tetrahydro-isoquinoline-6,7-diol] | 128 (≈ 376 µM) | 32 (≈ 94.1 µM) | 64 (≈ 188 µM) | 64 (≈ 188 µM) |
| COc1ccc(C2Cc3cc(O)c(O)cc3CN2)c2ccccc12 (stereo not shown) [Example 4, 3-(4-Methoxy-naphthalen-1-yl)-1,2,3,4-tetrahydro-isoquinoline-6,7-diol] | – | 32 (≈ 99.6 µM) | – | 32 (≈ 99.6 µM) |
| Oc1cc2c(cc1O)CC(c1ccc(Cl)cc1)NC2 (stereo not shown) [Example 15, 3-(4-Chloro-phenyl)-1,2,3,4-tetrahydro-isoquinoline-6,7-diol] | 128 (≈ 464 µM) | 32 (≈ 116 µM) | 32 (≈ 116 µM) | 16 (≈ 58 µM) |
| CN(C)c1ccc(-c2ccc(C3Cc4cc(O)c(O)cc4CN3)cc2)cc1 (stereo not shown) [Example 18, 3-(4′-Dimethylamino-biphenyl-4-yl)-1,2,3,4-tetrahydro-isoquinoline-6,7-diol] | > 128 | 8 (≈ 22.2 µM) | 16 (≈ 44.4 µM) | 4 (≈ 11.1 µM) |
| OCC1Cc2cc(O)c(O)cc2CN1 (stereo not shown) [Example 6, 3-Hydroxymethyl-1,2,3,4-tetrahydro-isoquinoline-6,7-diol] | 64 (≈ 328 µM) | 32 (≈ 164 µM) | 16 (≈ 82 µM) | 16 (≈ 82 µM) |
| Oc1cc2c(cc1O)CC(c1ccc(Oc3ccccc3)cc1)NC2 (stereo not shown) [Example 1, 3-(4-Phenoxy-phenyl)-1,2,3,4-tetrahydro-isoquinoline-6,7-diol] | 32 (≈ 96 µM) | 8 (≈ 24 µM) | 8 (≈ 24 µM) | 8 (≈ 24 µM) |
| Oc1cc2c(cc1O)CC(c1ccc(Cl)cc1Cl)NC2 (stereo not shown) [Example 9, 3-(2,4-Dichloro-phenyl)-1,2,3,4-tetrahydro-isoquinoline-6,7-diol] | 128 (≈ 413 µM) | 64 (≈ 206 µM) | 64 (≈ 206 µM) | 64 (≈ 206 µM) |
| Oc1cc2c(cc1O)CC(c1ccc(-c3ccccc3O)cc1)NC2 (stereo not shown) [Example 20, 3-(2′-Hydroxy-biphenyl-4-yl)-1,2,3,4-tetrahydro-isoquinoline-6,7-diol] | 128 (≈ 384 µM) | 32 (≈ 96 µM) | 32 (≈ 96 µM) | 16 (≈ 48 µM) |
| Oc1cc2c(cc1O)CC(c1ccc(O)c3ccccc13)NC2 (stereo not shown) [Example 5, 3-(4-Hydroxy-naphthalen-1-yl)-1,2,3,4-tetrahydro-isoquinoline-6,7-diol] | – | 16 (≈ 52.1 µM) | – | 32 (≈ 104 µM) |
| N#Cc1cccc(-c2ccc(C3Cc4cc(O)c(O)cc4CN3)cc2)c1 (stereo not shown) [Example 22, 4′-(6,7-Dihydroxy-1,2,3,4-tetrahydro-isoquinolin-3-yl)-biphenyl-3-carbonitrile] | > 128 | 64 (≈ 187 µM) | > 128 | 128 (≈ 374 µM) |
| Oc1cc2c(cc1O)CC(c1ccc(-c3ccc(C(F)(F)F)cc3)cc1)NC2 (stereo not shown) [Example 17, 3-(4′-Trifluoromethyl-biphenyl-4-yl)-1,2,3,4-tetrahydro-isoquinoline-6,7-diol] | 64 (≈ 166 µM) | 8 (≈ 20.8 µM) | 8 (≈ 20.8 µM) | 4 (≈ 10.4 µM) |
| CC1NC(c2ccc(Oc3ccccc3)cc2)Cc2cc(O)c(O)cc21 (stereo not shown) [Example 3, 1-Methyl-3-(4-phenoxy-phenyl)-1,2,3,4-tetrahydro-isoquinoline-6,7-diol] | – | 32 (≈ 92.1 µM) | – | 16 (≈ 46.1 µM) |
| Oc1cc2c(cc1O)CN(Cc1ccccc1)C(COc1ccc(Cl)cc1Cl)C2 (stereo not shown) [Example 11, 2-Benzyl-3-(2,4-dichloro-phenoxymethyl)-1,2,3,4-tetrahydro-isoquinoline-6,7-diol] | > 128 | > 128 | 8 (≈ 18.6 µM) | 8 (≈ 18.6 µM) |
| Oc1cc2c(cc1O)CC(c1ccc3oc4ccccc4c3c1)NC2 (stereo not shown) [Example 7, 3-Dibenzofuran-2-yl-1,2,3,4-tetrahydro-isoquinoline-6,7-diol] | 64 (≈ 193 µM) | 32 (≈ 96.6 µM) | 16 (≈ 48.3 µM) | 8 (≈ 24.1 µM) |
